The test relates to human G2 acute lymphoblastic leukemia (ALL) cells. Nature of the test: Flow cytometry cell-based assay: inhibition of soluble VCAM-1 binding to G2 ALL cells. Conditions: for IC50: inhibition of sVCAM-1 binding to human G2 ALL cells, read-out: sVCAM-1 IC50; for inhibition of sVCAM-1 binding compared with other inhibitors / inhibition of sVCAM-1 binding compared with Firategrast: flow cytometry; for inhibition of sVCAM-1 binding compared with other inhibitors: FIG. 6, 7, 10, 11; for inhibition of sVCAM-1 binding compared with Firategrast: FIG. 5, 8, 9, 12. As for the experimental part:
(§1) Compounds were tested for their ability to inhibit the binding of soluble VCAM-1 to human G2 acute lymphoblastic leukemia (ALL) cells. Briefly, G2 ALL cells are pre-incubated with increasing concentrations (0.001 to 1000 nM) of compounds for 30 minutes. Soluble VCAM/Fc chimera protein (R&D systems) is then added to the mixture and the cells incubated for an additional 30 minutes. Afterwards, cells are washed and VCAM-1 is detected using PE-conjugated secondary mAbs. In each experiment, an aliquot of cells will be stained with isotype control mAbs to serve as a negative control. The percentage of VCAM-1 binding cells was then determined by flow cytometry.
as §1, with “(ALL) cells or 5TGMI myeloma” for “(ALL)”, “ALL or 5TGMI” for “ALL”
For orientation: In flow cytometry, cells or beads pass a laser one at a time.

The record followed here is patent publication US20190328706A1, “COMPOSITIONS COMPRISING AN INTEGRIN INHIBITOR AND AGENTS WHICH INTERACT WITH A CHEMOKINE AND METHODS OF USE THEREOF” (Saint Louis University, priority 2016, published 2019).

The structures appear in SMILES notation. Like-named read-outs stand apart in the source and are kept apart here.

By IC50 is commonly meant the midpoint of a concentration-inhibition curve. For the compound `COc1cc(C(N)=O)cc(OC)c1-c1ccc(C[C@H](NC(=O)c2c(Cl)cc(C(=O)O)cc2Cl)C(=O)O)cc1` [Compound 1219, 4-{[(1S)-2-[4-(4-carbamoyl-2,6-dimethoxyphenyl)phenyl]-1-carboxyethyl]carbamoyl}-3,5-dichlorobenzoic acid], the IC50 (Table 8) stood at 72 nM.

Regarding `CCOCc1cc(OC)c(-c2ccc(C[C@H](NC(=O)[C@]3(C)CCCN3S(=O)(=O)c3ccccc3)C(=O)O)cc2)c(OC)c1` [Cmpd 34, (S)-3-(4′-(ethoxymethyl)-2′,6′-dimethoxy-[1,1′-biphenyl]-4-yl)-2-((S)-2-methyl-1-(phenylsulfonyl)pyrrolidine-2-carboxamido)propanoic acid], the 50% inhibitory concentration (IC50) (Table 12) was 11.7 nM.

On to `COCCOCCOCCOCc1cc(OC)c(-c2ccc(C[C@H](NC(=O)[C@@H]3CCN3S(=O)(=O)c3ccccc3)C(=O)O)cc2)c(OC)c1` [Compound 2087, (S)-3-(4′-(2,5,8,11-tetraoxadodecyl)-2′,6′-dimethoxy-[1,1′-biphenyl]-4-yl)-2-((S)-1-(phenylsulfonyl)azetidine-2-carboxamido)propanoic acid], for which the IC50 (Table 8) turned out to be 2.06 nM.

Consider `COCCOCc1cc(OC)c(-c2ccc(C[C@H](NC(=O)[C@@H]3CCN3S(=O)(=O)c3ccccc3)C(=O)O)cc2)c(OC)c1` [Compound 1745, (S)-3-(2′,6′-dimethoxy-4′-((2-methoxyethoxy)methyl)-[1,1′-biphenyl]-4-yl)-2-((S)-1-(phenylsulfonyl)azetidine-2-carboxamido)propanoic acid], for which the IC50 (Table 8) was 3.7 nM.

`COCCOCCOCCOCc1cc(OC)c(-c2ccc(C[C@H](NC(=O)[C@@H]3CCN3S(=O)(=O)c3cc(Cl)cc(Cl)c3)C(=O)O)cc2)c(OC)c1` [Compound 2088, (S)-3-(4′-(2,5,8,11-tetraoxadodecyl)-2′,6′-dimethoxy-[1,1′-biphenyl]-4-yl)-2-((S)-1-((3,5-dichlorophenyl)sulfonyl)azetidine-2-carboxamido)propanoic acid]: the “inhibition of sVCAM-1 binding compared with other inhibitors” value was “inhibition was greatest”. For the same compound, where the note is “Table 8”, the IC50 was 0.7 nM.

On to `CCOCc1cc(OC)c(-c2ccc(C[C@H](NC(=O)c3c(Cl)cc(C(=O)O)cc3Cl)C(=O)O)cc2)c(OC)c1` [Cmpd 23, 4-{[(1S)-1-carboxy-2-{4-[4-(ethoxymethyl)-2,6-dimethoxyphenyl]phenyl}ethyl]carbamoyl}-3,5-dichlorobenzoic acid], for which the concentration for half-maximal inhibition (IC50) (Table 12) was 0.58 nM.

Turning to `COCCOCCOCCOCc1cc(OC)c(-c2ccc(C[C@H](NC(=O)c3c(Cl)cc(C(=O)O)cc3Cl)C(=O)O)cc2)c(OC)c1` [Compound 1570, (S)-4-((2-(4′-(2,5,8,11-tetraoxadodecyl)-2′,6′-dimethoxy-[1,1′-biphenyl]-4-yl)-1-carboxyethyl)carbamoyl)-3,5-dichlorobenzoic acid], the “inhibition of sVCAM-1 binding compared with Firategrast” value (from here on “inhibition … compared with Firategrast”) is given as “greater inhibition of sVCAM-1 binding than did Firategrast”. Further, the IC50 (Table 8) is 2.97 nM.

Turning to `CCCCCC(=O)OCc1cc(OC)c(-c2ccc(C[C@H](NC(=O)c3c(Cl)cc(C(=O)O)cc3Cl)C(=O)O)cc2)c(OC)c1` [Compound 1571, (S)-4-((1-carboxy-2-(4′-((hexanoyloxy)methyl)-2′,6′-dimethoxy-[1,1′-biphenyl]-4-yl)ethyl)carbamoyl)-3,5-dichlorobenzoic acid], the “inhibition … compared with Firategrast” value is reported as “greater inhibition of sVCAM-1 binding than did Firategrast”. Further, the IC50 (Table 8) is 4.43 nM.

Consider `COc1cc(CF)cc(OC)c1-c1ccc(C[C@H](NC(=O)c2c(Cl)cc(C(=O)O)cc2Cl)C(=O)O)cc1` [Cmpd 26, 4-{[(1S)-1-carboxy-2-{4-[4-(fluoromethyl)-2,6-dimethoxyphenyl]phenyl}ethyl]carbamoyl}-3,5-dichlorobenzoic acid], for which the IC50 (Table 12) is 1.57 nM.

Turning to `COc1cc(CO)cc(OC)c1-c1ccc(C[C@H](NC(=O)c2c(Cl)cc(C(=O)O)cc2Cl)C(=O)O)cc1` [Compound 1220, 4-{[(1S)-1-carboxy-2-{4-[4-(hydroxymethyl)-2,6-dimethoxyphenyl]phenyl}ethyl]carbamoyl}-3,5-dichlorobenzoic acid], the “inhibition of sVCAM-1 binding compared with other inhibitors” value is given as “more potent inhibitors than 823”. In addition, under “Table 8”, the concentration for half-maximal inhibition (IC50) stood at 0.47 nM.

Turning to `CCOCc1cc(OC)c(-c2ccc(C[C@H](NC(=O)[C@]3(C)CCCN3S(=O)(=O)c3cc(Cl)cc(Cl)c3)C(=O)O)cc2)c(OC)c1` [Cmpd 33, (S)-2-((S)-1-((3,5-dichlorophenyl)sulfonyl)-2-methylpyrrolidine-2-carboxamido)-3-(4′-(ethoxymethyl)-2′,6′-dimethoxy-[1,1′-biphenyl]-4-yl)propanoic acid], the IC50 (Table 12) was found to be 2.47 nM.

As to `COc1cccc(N2CCC[C@H]2C(=O)N[C@@H](Cc2ccc(-c3c(OC)cccc3OC)cc2)C(=O)O)c1` [Compound 822], the half-inhibitory concentration (IC50) (Table 10) stood at 69 nM.

In the case of `CCCCCCOCc1cc(OC)c(-c2ccc(C[C@H](NC(=O)c3c(Cl)cc(C(=O)O)cc3Cl)C(=O)O)cc2)c(OC)c1` [Compound 1555, (S)-4-((1-carboxy-2-(4′-((hexyloxy)methyl)-2′,6′-dimethoxy-[1,1′-biphenyl]-4-yl)ethyl)carbamoyl)-3,5-dichlorobenzoic acid], the “inhibition … compared with Firategrast” value was “greater inhibition of sVCAM-1 binding than did Firategrast”. The IC50 (Table 8) was 12.9 nM.

With `CCOCc1cc(OC)c(-c2ccc(C[C@H](NC(=O)c3c(Cl)cc(C(=O)O)cc3Cl)C(=O)O)cc2)c(OC)c1` [Compound 1221, 4-{[(1S)-1-carboxy-2-{4-[4-(ethoxymethyl)-2,6-dimethoxyphenyl]phenyl}ethyl]carbamoyl}-3,5-dichlorobenzoic acid], the “inhibition of sVCAM-1 binding compared with other inhibitors” value is recorded as “more potent inhibitors than 823”. The IC50 (Table 8) was determined as 0.58 nM.

As to `COc1cccc(OC)c1-c1ccc(C[C@H](NC(=O)C2(c3ccccn3)CCCC2)C(=O)O)cc1` [Compound 825], under “Table 10”, the IC50 amounted to 48 nM.

As to `COc1cc(CO)cc(OC)c1-c1ccc(C[C@H](NC(=O)c2c(Cl)cc(C(=O)O)cc2Cl)C(=O)O)cc1` [Cmpd 22, 4-{[(1S)-1-carboxy-2-{4-[4-(hydroxymethyl)-2,6-dimethoxyphenyl]phenyl}ethyl]carbamoyl}-3,5-dichlorobenzoic acid], the IC50 (Table 12) came to 0.47 nM.

With `COc1cc(C(C)(C)O)cc(OC)c1-c1ccc(C[C@H](NC(=O)c2c(Cl)cc(C(=O)O)cc2Cl)C(=O)O)cc1` [Cmpd 25, 4-{[(1S)-1-carboxy-2-{4-[4-(2-hydroxypropan-2-yl)-2,6-dimethoxyphenyl]phenyl}ethyl]carbamoyl}-3,5-dichlorobenzoic acid], where the note is “Table 12”, the IC50 worked out at 70 nM.

As for `COc1cc(C(N)=O)cc(OC)c1-c1ccc(C[C@H](NC(=O)c2c(Cl)cc(C(=O)O)cc2Cl)C(=O)O)cc1` [Cmpd 21, 4-{[(1S)-2-[4-(4-carbamoyl-2,6-dimethoxyphenyl)phenyl]-1-carboxyethyl]carbamoyl}-3,5-dichlorobenzoic acid], the concentration for half-maximal inhibition (IC50) (Table 12) is 72 nM.

On to `COc1cc(COC2COC2)cc(OC)c1-c1ccc(C[C@H](NC(=O)[C@@H]2CCCN2S(=O)(=O)c2cc(Cl)cc(Cl)c2)C(=O)O)cc1` [Compound 009], for which, where the note is “Table 10”, the IC50 came out at 4.47 nM.

As to `COCCOCc1cc(OC)c(-c2ccc(C[C@H](NC(=O)c3c(Cl)cc(C(=O)O)cc3Cl)C(=O)O)cc2)c(OC)c1` [Compound 1554, (S)-4-((1-carboxy-2-(2′,6′-dimethoxy-4′-((2-methoxyethoxy)methyl)-[1,1′-biphenyl]-4-yl)ethyl)carbamoyl)-3,5-dichlorobenzoic acid], the “inhibition … compared with Firategrast” value was “greater inhibition of sVCAM-1 binding than did Firategrast”. Besides, the IC50 (Table 8) came out at 1.47 nM.

Regarding `COCCOCc1cc(OC)c(-c2ccc(C[C@H](NC(=O)[C@@H]3CCN3S(=O)(=O)c3cc(Cl)cc(Cl)c3)C(=O)O)cc2)c(OC)c1` [Compound 1746, (S)-2-((S)-1-((3,5-dichlorophenyl)sulfonyl)azetidine-2-carboxamido)-3-(2′,6′-dimethoxy-4′-((2-methoxyethoxy)methyl)-[1,1′-biphenyl]-4-yl)propanoic acid], the “inhibition of sVCAM-1 binding compared with other inhibitors” value was “inhibition was greatest”. Also, the IC50 (Table 8) was 3.79 nM.

Consider `COc1cc(C(=O)O)cc(OC)c1-c1ccc(C[C@H](NC(=O)c2c(Cl)cc(C(=O)O)cc2Cl)C(=O)O)cc1` [Cmpd 24, 4-{4-[(2S)-2-carboxy-2-[(4-carboxy-2,6-dichlorophenyl)formamido]ethyl]phenyl}-3,5-dimethoxybenzoic acid], for which the IC50 (Table 12) amounted to 218 nM.

Consider `COc1cccc(OC)c1-c1ccc(C[C@H](NC(=O)c2c(Cl)cccc2Cl)C(=O)O)cc1C(C)O` (stereo partly shown) [Compound 1632], for which the “inhibition … compared with Firategrast” value is “significantly more potent than Firategrast”. Where the note is “Table 10”, the IC50 is 10 nM.

Regarding `CCOCc1cc(OC)c(-c2ccc(C[C@H](NC(=O)[C@]3(C)CCCN3S(=O)(=O)c3cc(Cl)cc(Cl)c3)C(=O)O)cc2)c(OC)c1` [Compound 1608, (S)-2-((S)-1-((3,5-dichlorophenyl)sulfonyl)-2-methylpyrrolidine-2-carboxamido)-3-(4′-(ethoxymethyl)-2′,6′-dimethoxy-[1,1′-biphenyl]-4-yl)propanoic acid], the “inhibition … compared with Firategrast” value is given as “significantly more potent than Firategrast”. Further, the IC50 (Table 8) stood at 2.47 nM.
